Experimental data taken from paper PMC4490784, “Compensatory induction of MYC expression by sustained CDK9 inhibition via a BRD4-dependent mechanism” (eLife, 2015).

Tests used:
CDK8-CycC = CDK8-CycC (Homo sapiens, UniProt P49336); experiment: AlphaScreen-based kinase assay; assay type: biochemical
[1] = tested on: MYC protein in HeLa cells; experiment: Immunoblotting of MYC protein in HeLa cell lysates; assay type: cell-based, human
Protocol: Figure 3. Induction of MYC mRNA production in response to sustained inhibition of CDK9 by i-CDK9 and the requirement of MYC's natural genomic structure in this process. (A) The indicated tumor cell lines were treated with i-CDK9 (0.5 μM) for 2–16 hr and the MYC mRNA levels, which were divided by those in the DMSO-treated cells and averaged from three independent replicates of DNA microarray analysis, were shown as log2 values. (B) HeLa cells were treated with the indicated concentrations of i-CDK9 for 8 hr and the various proteins in the total cell lysates were detected by immunoblotting as indicated. Quantifications of the levels of MYC protein and Ser2-phosphoryalted Pol II (pSer2) in the lysates were shown above and below the immunoblots, respectively. […] The levels of the indicated proteins were examined by immunoblotting. (G) A HeLa-based cell line containing the stably transfected, doxycycline (Dox)-inducible MYC-F-expressing plasmid driven by the CMV promoter was pretreated with (+) or without (−) Dox prior to incubation with i-CDK9 or DMSO. MYC and MYC-F expressed from the endogenous MYC locus and the transfected plasmid, respectively, were detected by immunoblotting. DOI: http://dx.doi.org/10.7554/eLife.06535.007 Figure 3—figure supplement 1. Biphasic response of MYC mRNA production throughout the course of CDK9 inhibition by i-CDK9. DOI: http://dx.doi.org/10.7554/eLife.06535.008 [drawing 2] Figure 3—Figure supplement 2. […] DOI: http://dx.doi.org/10.7554/eLife.06535.009 [drawing 3] TEXT PRINTED IN THE PICTURE: (B) i-CDK9: Fold increase in MYC protein: 1.0 (i-CDK9 (μM): 0); Fold increase in MYC protein: 1.2 (i-CDK9 (μM): 0.01); Fold increase in MYC protein: 1.7 (i-CDK9 (μM): 0.03); Fold increase in MYC protein: 3.6 (i-CDK9 (μM): 0.1); Fold increase in MYC protein: 5.2 (i-CDK9 (μM): 0.3); Fold increase in MYC protein: 5.5 (i-CDK9 (μM): 1.0) | (C) i-CDK9: Fold increase in MYC protein: 1.0 (0.3 μM i-CDK9 (h): 0); Fold increase in MYC protein: 0.9 (0.3 μM i-CDK9 (h): 1); Fold increase in MYC protein: 1.1 (0.3 μM i-CDK9 (h): 2); Fold increase in MYC protein: 1.2 (0.3 μM i-CDK9 (h): 4); Fold increase in MYC protein: 3.3 (0.3 μM i-CDK9 (h): 8)
First, the induction of MYC protein level was confirmed in HeLa cells treated with i-CDK9. […] It took 1.0 µM i-CDK9 to cause up to 85% reduction in pSer2. In a separate time-course analysis, the 8-hr incubation with i-CDK9 (0.3 μM) induced the MYC level by 3.3-fold, whereas the same condition reduced the pSer2 level by only 40% (Figure 3C). Thus, MYC expression was highly responsive to i-CDK9 treatment and occurred at a time point earlier and drug concentration lower than those required to achieve a significant suppression of Ser2 phosphorylation on the Pol II CTD.

HeLa cells = experiment: Immunoblotting of MCL-1 and PARP in HeLa cell lysates; assay type: cell-based, human; conditions: 8 hr
Protocol: Figure 1. i-CDK9 is a potent and selective CDK9 inhibitor that elicits cellular responses indicative of P-TEFb inhibition. (A and B) Structures and selectivity profiles of i-CDK9 (A) and falvopiridol (B). […] (C) In vitro kinase reactions containing affinity-purified CDK9-F-CycT or CDK12-F-CycK and GST-CTD as a substrate were conducted in the presence of the indicated concentrations of i-CDK9. pSer2 and the Flag-tagged kinase in each reaction were detected by Western blotting with anti-pSer2 and anti-Flag antibodies, respectively. (D) HeLa cells were treated for 8 hr with DMSO or the indicated concentrations of i-CDK9. Total cell lysates were examined by immunoblotting for the proteins labeled on the left. DOI: http://dx.doi.org/10.7554/eLife.06535.003 Figure 1—source data 1. Selectivity profile of i-CDK9. DOI: http://dx.doi.org/10.7554/eLife.06535.004 Figure 1—figure supplement 1. Recombinant CDK12-CycK is less sensitive to inhibition by i-CDK9.
Inhibition of phosphorylation of both Pol II CTD and SPT5 is expected to block transcriptional elongation, which will effectively decrease the production of labile proteins from short-lived transcripts.

CDK9-CycT1 = CDK9-CycT1 (Homo sapiens, UniProt P50750); experiment: In vitro kinase assay with CDK7tide, effect of BRD4 on response to i-CDK9; assay type: biochemical
Protocol: The reactions were stopped by adding 60 mM EDTA plus 0.01% Tween 20. After the addition of AlphaScreen beads (PerkinElmer) and detection antibody (Cell Signaling Technology, #4735) followed by overnight incubation at room temperature, the plates were read on an Envision 2101 (PerkinElmer).

[2] = tested on: 7SK snRNP in HeLa-based F1C2 cells; experiment: CDK9-F co-immunoprecipitation: disruption of 7SK snRNP, formation of BRD4-P-TEFb; assay type: cell-based, human
Protocol: A number of stress-inducing agents/conditions are known to cause the release of P-TEFb from 7SK snRNP, which serves as the principal reservoir of uncommitted P-TEFb activity in the nucleus (reviewed in [Zhou et al., 2012]). […] CDK9-F was stably expressed in the HeLa-based F1C2 cells ([Yang et al., 2001]) that were treated with a wide range of i-CDK9 concentrations for 8 hr.
Just like the induction of MYC expression (Figure 3B), the disruption of 7SK snRNP and formation of BRD4-P-TEFb were highly sensitive to i-CDK9 and required as little as 0.1 μM of the drug (Figure 4A, compare lane 8 to lane 6). […] In a time course analysis, i-CDK9 (0.3 μM)-induced disruption of 7SK snRNP at a time point (1 hr) that was much earlier than that required to cause about 50% reduction in global pSer2 (8 hr; Figure 4—figure supplement 1).
All Co-immunoprecipitation experiments were performed in NEs prepared from F1C2 cells that stably express CDK9-F or the parental HeLa cells transfected with the indicated cDNAs. The procedures have been described previously ([Lu et al., 2014]).

Chain of CDK9-CycT1 (P50750 whole entry): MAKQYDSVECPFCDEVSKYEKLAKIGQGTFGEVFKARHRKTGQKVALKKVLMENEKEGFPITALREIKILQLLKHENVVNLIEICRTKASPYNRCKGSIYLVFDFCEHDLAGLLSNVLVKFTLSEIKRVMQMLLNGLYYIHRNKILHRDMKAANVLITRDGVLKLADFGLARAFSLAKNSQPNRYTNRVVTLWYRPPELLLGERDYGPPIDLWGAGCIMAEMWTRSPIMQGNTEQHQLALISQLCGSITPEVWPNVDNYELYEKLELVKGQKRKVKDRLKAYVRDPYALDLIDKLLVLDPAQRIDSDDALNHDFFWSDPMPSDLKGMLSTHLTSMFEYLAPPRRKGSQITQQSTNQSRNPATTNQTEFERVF
Chain of CDK9-CycT1 (O60563 whole entry partner): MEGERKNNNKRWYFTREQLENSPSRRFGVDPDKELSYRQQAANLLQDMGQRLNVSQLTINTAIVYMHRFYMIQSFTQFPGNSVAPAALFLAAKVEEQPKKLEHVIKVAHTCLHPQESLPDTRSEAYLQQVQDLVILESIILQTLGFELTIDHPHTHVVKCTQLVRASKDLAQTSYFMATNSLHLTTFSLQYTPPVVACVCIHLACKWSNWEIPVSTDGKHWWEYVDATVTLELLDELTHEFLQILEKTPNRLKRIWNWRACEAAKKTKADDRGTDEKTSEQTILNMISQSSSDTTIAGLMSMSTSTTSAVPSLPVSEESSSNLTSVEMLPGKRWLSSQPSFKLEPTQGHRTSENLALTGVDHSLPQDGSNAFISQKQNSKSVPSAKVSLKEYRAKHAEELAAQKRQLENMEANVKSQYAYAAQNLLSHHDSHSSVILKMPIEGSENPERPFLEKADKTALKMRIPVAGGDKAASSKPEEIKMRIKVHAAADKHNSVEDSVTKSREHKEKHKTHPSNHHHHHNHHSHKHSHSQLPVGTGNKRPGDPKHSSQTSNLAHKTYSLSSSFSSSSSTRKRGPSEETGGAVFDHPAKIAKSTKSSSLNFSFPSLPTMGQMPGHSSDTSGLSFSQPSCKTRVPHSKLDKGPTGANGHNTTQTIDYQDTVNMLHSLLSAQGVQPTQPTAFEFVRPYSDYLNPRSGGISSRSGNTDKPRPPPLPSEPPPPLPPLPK
Chain of CDK8-CycC (P49336 whole entry): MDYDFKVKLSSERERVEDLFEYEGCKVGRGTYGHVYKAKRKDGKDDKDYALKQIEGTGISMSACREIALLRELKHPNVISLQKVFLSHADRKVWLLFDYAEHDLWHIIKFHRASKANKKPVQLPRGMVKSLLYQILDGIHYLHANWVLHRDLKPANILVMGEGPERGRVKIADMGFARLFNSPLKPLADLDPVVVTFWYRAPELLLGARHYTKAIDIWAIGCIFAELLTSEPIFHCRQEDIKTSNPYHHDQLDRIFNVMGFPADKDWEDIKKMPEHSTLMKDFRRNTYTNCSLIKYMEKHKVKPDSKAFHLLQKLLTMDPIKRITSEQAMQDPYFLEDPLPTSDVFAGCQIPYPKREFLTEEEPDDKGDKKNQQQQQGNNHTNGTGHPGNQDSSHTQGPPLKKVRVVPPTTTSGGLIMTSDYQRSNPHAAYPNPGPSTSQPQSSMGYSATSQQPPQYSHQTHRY
Chain of CDK8-CycC (P24863 whole entry partner): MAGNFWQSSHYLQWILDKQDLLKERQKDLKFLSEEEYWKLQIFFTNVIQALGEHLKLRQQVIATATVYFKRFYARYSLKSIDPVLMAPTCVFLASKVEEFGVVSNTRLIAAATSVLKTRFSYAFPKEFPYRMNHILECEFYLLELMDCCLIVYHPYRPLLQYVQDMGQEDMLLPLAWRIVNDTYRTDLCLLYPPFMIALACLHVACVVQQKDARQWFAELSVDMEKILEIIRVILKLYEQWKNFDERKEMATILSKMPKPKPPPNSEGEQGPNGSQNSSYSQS

## N[C@H]1CC[C@H](Nc2cc(-c3cccc(NCc4cccc(F)c4)n3)c(Cl)cn2)CC1 [i-CDK9, N2′-(trans-4-aminocyclohexyl)-5′-chloro-N6-(3-fluorobenzyl)-2,4′-bipyridine-2′,6-diamine]
CDK8-CycC
  IC50: > 1000 nM
[1]; 0.01 μM, 8 hr
  Fold increase in MYC protein: 1.2 fold
[1]; 0.03 μM, 8 hr
  Fold increase in MYC protein: 1.7 fold
[1]; 0.1 μM, 8 hr
  Fold increase in MYC protein: 3.6 fold
[1]; 0.3 μM, 1 h (time course)
  Fold increase in MYC protein: 0.9 fold
[1]; 0.3 μM, 2 h (time course)
  Fold increase in MYC protein: 1.1 fold
[1]; 0.3 μM, 4 h (time course)
  Fold increase in MYC protein: 1.2 fold
[1]; 0.3 μM, 8 h (time course)
  Fold increase in MYC protein: 3.3 fold
[1]; 0.3 μM, 8 hr (dose series)
  Fold increase in MYC protein: 5.2 fold
[1]; 1.0 μM, 8 hr
  Fold increase in MYC protein: 5.5 fold
[1]; 2 μM added at time zero
  MYC induction: No MYC induction
HeLa cells
  cleavage of PARP: induced proteolytic cleavage
  expression of MCL-1: markedly down-regulated
CDK9-CycT1; CDK9/CycT1 + WT BRD4
  IC50: 14.7 ± 2.1 nM
CDK9-CycT1; CDK9/CycT1 + ΔPID BRD4
  IC50: 7.2 ± 0.6 nM
CDK9-CycT1; CDK9/CycT1, absence of BRD4
  IC50: 4.4 ± 0.7 nM
[2]; 0.3 μM
  time point of disruption of 7SK snRNP: 1 h
[2]; 8 hr
  concentration required for disruption of 7SK snRNP and formation of BRD4-P-TEFb: 0.1 µM
